These are literature values, as cited in US20150219673A1, “THE USE OF GENE EXPRESSION PROFILING AS A BIOMARKER FOR ASSESSING THE EFFICACY OF HDAC INHIBITOR TREATMENT IN NEURODEGENERATIVE CONDITIONS” (Massachusetts Institute of Technology, priority 2012, published 2015).

Each structure is given as a SMILES string.

The data set relates to cognitive function. Conditions: see US 2011/0224303; cited from earlier work.

On to `Nc1ccc(C(=O)Nc2ccccc2N)cc1` [dinaline], for which the “cognitive function in vivo” value is given as “improve cognitive function in vivo”.
